Measured values published in PubChem BioAssay AID248 (DTP/NCI, 2004).
Where “and” joins values, the source holds several entries; their conditions need not be identical. Identical values can stand only once. Inconclusive results and toxic doses are left out. No stated cut-off is given here; in the data, active means T/C of 150% or more; inactive means T/C below 125%.

System: L1210 leukemia ip in BDF1 mice, survival T/C
Assay: NCI In Vivo Anticancer Drug Screen. Data for tumor model L1210 Leukemia (intraperitoneal) in B6D2F1 (BDF1) mice
Conditions: endpoint: mean survival time, higher = longer survival
In short: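 In this screen, tumor-bearing mice given compound are compared to those given vehicle, and their survival values are reported as a treated-to-control quotient.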

[1] = dose: 100.0 mg/kg/injection, schedule: Q04DX003 (ip), vehicle: saline
[2] = dose: 200.0 mg/kg/injection, schedule: Q04DX003 (ip), vehicle: saline
[3] = dose: 100.0 mg/kg/injection, schedule: Q01DX009 (ip), vehicle: saline with Tween-80
[4] = dose: 100.0 mg/kg/injection, schedule: Q04DX003 (ip), vehicle: saline with Tween-80
[5] = dose: 200.0 mg/kg/injection, schedule: Q01DX009 (ip), vehicle: saline with Tween-80
[6] = dose: 200.0 mg/kg/injection, schedule: Q04DX003 (ip), vehicle: saline with Tween-80
[7] = dose: 400.0 mg/kg/injection, schedule: Q01DX009 (ip), vehicle: saline with Tween-80
[8] = dose: 400.0 mg/kg/injection, schedule: Q04DX003 (ip), vehicle: saline with Tween-80
[9] = dose: 100.0 mg/kg/injection, schedule: Q04DX003 (ip), vehicle: Klucel (hydroxypropylcellulose) (HPC)
[10] = dose: 200.0 mg/kg/injection, schedule: Q04DX003 (ip), vehicle: Klucel (hydroxypropylcellulose) (HPC)
[11] = dose: 100.0 mg/kg/injection, schedule: Q01DX009 (ip), vehicle: Klucel (hydroxypropylcellulose) (HPC)
[12] = dose: 200.0 mg/kg/injection, schedule: Q01DX009 (ip), vehicle: Klucel (hydroxypropylcellulose) (HPC)
[13] = dose: 100.0 mg/kg/injection, schedule: Q04DX002 (ip), vehicle: Klucel (hydroxypropylcellulose) (HPC)
[14] = dose: 200.0 mg/kg/injection, schedule: Q04DX002 (ip), vehicle: Klucel (hydroxypropylcellulose) (HPC)
[15] = dose: 400.0 mg/kg/injection, schedule: Q04DX002 (ip), vehicle: Klucel (hydroxypropylcellulose) (HPC)
[16] = dose: 6.25 mg/kg/injection, schedule: Q01DX009 (ip), vehicle: saline with Tween-80
[17] = dose: 12.5 mg/kg/injection, schedule: Q01DX009 (ip), vehicle: saline with Tween-80
[18] = dose: 25.0 mg/kg/injection, schedule: Q01DX009 (ip), vehicle: saline with Tween-80
[19] = dose: 200.0 mg/kg/injection, schedule: Q01DX001 (ip), vehicle: saline
[20] = dose: 100.0 mg/kg/injection, schedule: Q01DX001 (ip), vehicle: Klucel (hydroxypropylcellulose) (HPC)
[21] = dose: 200.0 mg/kg/injection, schedule: Q01DX001 (ip), vehicle: Klucel (hydroxypropylcellulose) (HPC)
[22] = dose: 25.0 mg/kg/injection, schedule: Q04DX003 (ip), vehicle: saline with Tween-80

Measured: T/C

CC(=O)OCc1cc2cc(O)ccc2nc1C
inactive: [1] 110 % of control | [2] 110 % of control | dose: 400.0 mg/kg/injection, schedule: Q04DX003 (ip), vehicle: saline 116 % of control

CCOC(=O)c1c[nH]c2c(OC)cccc2c1=O
inactive: [3] 102 % of control | [4] 98 % of control | [5] 88 % of control | [6] 98 % of control | [7] 97 % of control | [8] 109 % of control

O=C(CS(=O)(=O)O)c1ccc(Br)cc1
inactive: dose: 100.0 mg/kg/injection, schedule: Q04DX002 (ip), vehicle: saline with Tween-80 97 % of control | dose: 200.0 mg/kg/injection, schedule: Q04DX002 (ip), vehicle: saline with Tween-80 97 % of control | dose: 400.0 mg/kg/injection, schedule: Q04DX002 (ip), vehicle: saline with Tween-80 94 % of control

CC(=O)OC/C=C(\C)CCC=O
inactive: dose: 100.0 mg/kg/injection, schedule: Q04DX003 (ip), vehicle: water 98 % of control | dose: 200.0 mg/kg/injection, schedule: Q04DX003 (ip), vehicle: water 102 % of control | dose: 400.0 mg/kg/injection, schedule: Q04DX003 (ip), vehicle: water 100 % of control

CC[N+](CC)(CC)CCCNC(=O)C12CC3CC(CC(C3)C1)C2
inactive: dose: 25.0 mg/kg/injection, schedule: Q04DX002 (ip), vehicle: saline 95 % of control | dose: 50.0 mg/kg/injection, schedule: Q04DX002 (ip), vehicle: saline 101 % of control

O=[N+]([O-])c1c(Cl)cccc1-c1c[nH]cc1Cl
inactive: dose: 100.0 mg/kg/injection, schedule: Q01DX001 (ip), vehicle: other 92 % of control | dose: 200.0 mg/kg/injection, schedule: Q01DX001 (ip), vehicle: other 90 % of control | dose: 400.0 mg/kg/injection, schedule: Q01DX001 (ip), vehicle: other 97 % of control

O=C(OCCCl)Oc1c(Cl)cc([N+](=O)[O-])cc1[N+](=O)[O-]
inactive: [9] 101 % of control | [10] 101 % of control | dose: 400.0 mg/kg/injection, schedule: Q04DX003 (ip), vehicle: Klucel (hydroxypropylcellulose) (HPC) 86 % of control

Cn1c(O)c(O)c(=O)n(C)c1=O
inactive: dose: 50.0 mg/kg/injection, schedule: Q01DX009 (ip), vehicle: Klucel (hydroxypropylcellulose) (HPC) 101 % of control | [11] 98 % of control | [12] 88 % of control

O=C(NC1CCCCC1)Oc1ccc2ccccc2c1
inactive: [13] 102 % of control | [14] 100 % of control | [15] 107 % of control

CC(=O)c1c(O)c(Br)c(C)oc1=O (tested in a mixture with another compound)
inactive: [16] 89 % of control | [17] 100 % of control | [18] 93 % of control

O=[N+]([O-])c1ccc(F)cc1F
inactive: dose: 22.0 mg/kg/injection, schedule: Q01DX009 (ip), vehicle: Klucel (hydroxypropylcellulose) (HPC) 103 % of control | dose: 43.7 mg/kg/injection, schedule: Q01DX009 (ip), vehicle: Klucel (hydroxypropylcellulose) (HPC) 105 % of control | dose: 87.5 mg/kg/injection, schedule: Q01DX009 (ip), vehicle: Klucel (hydroxypropylcellulose) (HPC) 97 % of control and 114 % of control

NC(c1ccccc1)c1ccccc1
inactive: [1] 104 % of control | [2] 95 % of control

CC(C)c1ccc(/C=N/N=C(N)N)cc1
inactive: dose: 3.8 mg/kg/injection, schedule: Q01DX Z (ip), vehicle: other 100 % of control | dose: 7.5 mg/kg/injection, schedule: Q01DX Z (ip), vehicle: other 102 % of control | dose: 15.0 mg/kg/injection, schedule: Q01DX Z (ip), vehicle: other 94 % of control

O=C(CCN1CC=C(c2ccccc2)CC1)NCc1ccccc1
inactive: [3] 95 % of control | [4] 98 % of control | [5] 93 % of control | [6] 100 % of control | [7] 95 % of control | [8] 100 % of control

COC1(c2ccccc2)CN(Cc2ccccc2)CCO1 (configuration not stated)
inactive: [11] 95 % of control | [12] 98 % of control

ClCCC(c1ccccc1)N1CCCCC1 (configuration not stated)
inactive: dose: 44.0 mg/kg/injection, schedule: Q01DX001 (ip), vehicle: saline 97 % of control and 106 % of control | dose: 66.0 mg/kg/injection, schedule: Q01DX001 (ip), vehicle: saline 96 % of control and 97 % of control | dose: 150.0 mg/kg/injection, schedule: Q01DX001 (ip), vehicle: saline 97 % of control and 92 % of control | [19] 93 % of control

O=C1CC2(CCNCC2)C(=O)N1N1CCCCCC1
inactive: dose: 100.0 mg/kg/injection, schedule: Q01DX001 (ip), vehicle: saline 110 % of control | [19] 112 % of control | dose: 400.0 mg/kg/injection, schedule: Q01DX001 (ip), vehicle: saline 100 % of control

O=S(=O)(c1ccccc1)C(I)I
inactive: dose: 10.0 mg/kg/injection, schedule: Q04DX002 (ip), vehicle: Klucel (hydroxypropylcellulose) (HPC) 96 % of control | dose: 20.0 mg/kg/injection, schedule: Q04DX002 (ip), vehicle: Klucel (hydroxypropylcellulose) (HPC) 94 % of control | dose: 40.0 mg/kg/injection, schedule: Q04DX002 (ip), vehicle: Klucel (hydroxypropylcellulose) (HPC) 100 % of control

Nc1cc(Nc2ccccc2)nc(=O)[nH]1
inactive: [20] 94 % of control | [21] 97 % of control

CC(C)Cc1ccc(OC(=O)Nc2ccc(Cl)cc2)cc1
inactive: [22] 95 % of control | dose: 50.0 mg/kg/injection, schedule: Q04DX003 (ip), vehicle: saline with Tween-80 95 % of control | [4] 95 % of control

Cc1nc(N)[nH]c(=O)c1CCCc1ccccc1
inactive: dose: 100.0 mg/kg/injection, schedule: Q01DX009 (ip), vehicle: gum acacia 103 % of control | dose: 200.0 mg/kg/injection, schedule: Q01DX009 (ip), vehicle: gum acacia 94 % of control | dose: 400.0 mg/kg/injection, schedule: Q01DX009 (ip), vehicle: gum acacia 95 % of control

CS(=O)c1ccc2c(c1)-c1ccccc1C2=O (configuration not stated)
inactive: dose: 50.0 mg/kg/injection, schedule: Q01DX001 (ip), vehicle: carboxymethylcellulose (CMC) 95 % of control | dose: 100.0 mg/kg/injection, schedule: Q01DX001 (ip), vehicle: carboxymethylcellulose (CMC) 101 % of control | dose: 200.0 mg/kg/injection, schedule: Q01DX001 (ip), vehicle: carboxymethylcellulose (CMC) 95 % of control | dose: 400.0 mg/kg/injection, schedule: Q01DX001 (ip), vehicle: carboxymethylcellulose (CMC) 101 % of control

Nc1ccccc1S(N)(=O)=O
inactive: dose: 25.0 mg/kg/injection, schedule: Q04DX002 (ip), vehicle: Klucel (hydroxypropylcellulose) (HPC) 97 % of control | dose: 50.0 mg/kg/injection, schedule: Q04DX002 (ip), vehicle: Klucel (hydroxypropylcellulose) (HPC) 97 % of control | [13] 101 % of control and 120 % of control | [14] 97 % of control and 100 % of control | [15] 113 % of control

CN(C)/N=C(\Cc1ccccc1)c1ccccc1
inactive: [20] 99 % of control | [21] 99 % of control | dose: 400.0 mg/kg/injection, schedule: Q01DX001 (ip), vehicle: Klucel (hydroxypropylcellulose) (HPC) 98 % of control

CCOC(=O)c1[nH]c2ccccc2c1CN(CC)CC
inactive: dose: 75.0 mg/kg/injection, schedule: Q01DX001 (ip), vehicle: carboxymethylcellulose (CMC) 94 % of control

CC(F)(F)C(F)(F)C(=O)CC(=O)C(F)(F)F.CC(F)(F)C(F)(F)C(=O)CC(=O)C(F)(F)F.[Cu]
inactive: [16] 88 % of control | dose: 6.25 mg/kg/injection, schedule: Q04DX003 (ip), vehicle: saline with Tween-80 91 % of control | [17] 101 % of control | dose: 12.5 mg/kg/injection, schedule: Q04DX003 (ip), vehicle: saline with Tween-80 95 % of control | [18] 90 % of control | [22] 95 % of control

O=C(OCC(Cl)(Cl)Cl)OCC(Cl)(Cl)Cl
inactive: [9] 98 % of control | [10] 98 % of control
